Assay results taken from patent US20180289809A1, “FORMULATIONS OF HYDROPHILIC COMPOUNDS” (BCS Business Consulting Services Pte Ltd., priority 2015, published 2018).

Assay: Formation of clear nanoemulsion formulation with substituted hydrophobic phase ingredient
Assay type: physicochemical
Details: used as hydrophobic phase ingredient substituted into the examples; failures generally began cloudy and separated into two phases, primarily within 24 hours

SMILES	forms successful nanoemulsion / clear formulation
CCCCCCCCCCCCCCCCCC(=O)OCCCCCCCC [octyl stearate]	did not form successful nanoemulsion formulations
CCCCCCCCCCCCCCCC(=O)OC(C)C [isopropyl palmitate]	did not form successful nanoemulsion formulations
CCCCC/C=C\C/C=C\CCCCCCCC(=O)Oc1c(C)c(C)c2c(c1C)CC[C@@](C)(CCC[C@H](C)CCC[C@H](C)CCCC(C)C)O2 [tocopheryl linoleate]	did not form successful nanoemulsion formulations
CCCCC(CC)COC(=O)c1ccccc1 (stereo not shown) [ethylhexyl benzoate]	did not form successful nanoemulsion formulations
CC(C)=CCC/C(C)=C/CC/C(C)=C/CC/C=C(\C)CC/C=C(\C)CCC=C(C)C [Squalene]	did form clear formulations
C[Si]1(C)O[Si](C)(C)O[Si](C)(C)O[Si](C)(C)O[Si](C)(C)O1 [cycopentasiloxane]	did not form successful nanoemulsion formulations
CCCCCCCCCCCCCCCCOC(=O)CCCCCCC [cetyl octanoate]	did not form successful nanoemulsion formulations
